Laboratory results as given in ChEMBL document CHEMBL1201862, “PubChem BioAssay data set” (2004).
Calls of active or inactive are those of the source.

How the values were obtained:
[1] = target: T1, Short transient receptor potential channel 4 (Mus musculus, UniProt Q9QUQ5); assay: mouse TRPC4 channel activators, dose response, cell-based, HEK293 TRPC4/mu-opioid, Fluo-4 calcium (AID 434937); format: functional
T1 sequence (Q9QUQ5 whole entry): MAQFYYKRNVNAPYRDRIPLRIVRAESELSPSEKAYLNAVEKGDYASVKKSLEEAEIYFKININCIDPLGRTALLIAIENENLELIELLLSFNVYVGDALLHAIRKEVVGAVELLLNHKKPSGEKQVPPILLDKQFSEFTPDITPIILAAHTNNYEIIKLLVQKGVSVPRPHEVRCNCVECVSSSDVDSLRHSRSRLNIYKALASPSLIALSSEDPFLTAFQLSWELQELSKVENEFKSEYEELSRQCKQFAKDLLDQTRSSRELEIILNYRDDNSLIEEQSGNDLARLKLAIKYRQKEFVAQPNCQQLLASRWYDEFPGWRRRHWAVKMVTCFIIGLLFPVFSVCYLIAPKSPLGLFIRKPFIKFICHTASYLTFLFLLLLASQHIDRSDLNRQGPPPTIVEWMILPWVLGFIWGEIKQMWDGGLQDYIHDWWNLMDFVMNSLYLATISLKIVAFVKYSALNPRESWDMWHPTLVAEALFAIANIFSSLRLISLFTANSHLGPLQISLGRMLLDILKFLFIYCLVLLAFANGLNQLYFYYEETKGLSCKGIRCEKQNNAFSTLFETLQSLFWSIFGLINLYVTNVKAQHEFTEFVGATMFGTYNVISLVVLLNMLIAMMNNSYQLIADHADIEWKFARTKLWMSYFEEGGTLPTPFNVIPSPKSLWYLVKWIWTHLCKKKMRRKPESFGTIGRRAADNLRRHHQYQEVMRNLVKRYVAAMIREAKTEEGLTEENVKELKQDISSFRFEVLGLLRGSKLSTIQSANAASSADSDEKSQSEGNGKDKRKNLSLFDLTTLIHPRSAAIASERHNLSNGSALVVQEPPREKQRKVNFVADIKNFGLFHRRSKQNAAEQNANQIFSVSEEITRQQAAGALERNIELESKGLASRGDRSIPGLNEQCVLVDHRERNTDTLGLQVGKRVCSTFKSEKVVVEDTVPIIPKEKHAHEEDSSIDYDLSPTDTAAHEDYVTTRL

[2] = target: Delta-type opioid receptor (Homo sapiens, UniProt P41143); assay: Counterscreen for agonists of heterodimerization of the mu 1 (OPRM1) and delta 1 (OPRD1) opioid receptors: Luminescence-based cell-based high throughput dose response assay to identify agonists of OPRD1 homodimerization. [Related pubchem assays (depositor defined):AID504326, AID504355, AID504692, AID504904, AID504905]; format: functional
Mu-type opioid receptor = Mu-type opioid receptor (Homo sapiens, UniProt P35372); assay: Counterscreen for agonists of heterodimerization of the mu 1 (OPRM1) and delta 1 (OPRD1) opioid receptors: Luminescence-based cell-based high throughput dose response assay to identify agonists of OPRM1 homodimerization.; format: functional;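 further: U2OS cells expressing OPRM1 and beta-arrestin as split beta-galactosidase partners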
[3] = target: 5-hydroxytryptamine receptor 5A (Homo sapiens, UniProt P47898); assay: Counterscreen for agonists of OPRM1-OPRD1 heterodimerization: luminescence-based cell-based high throughput dose response assay to identify agonists of 5-hydroxytryptamine (serotonin) 5A receptor (HTR5A). [Related pubchem assays (depositor defined):AID504326, AID504355, AID504692, AID504904, AID504905]; format: functional
BJ [4] = assay: cytotoxicity toward BJ-TERT fibroblasts, dose response, cell-based, RAS-independent, luminescence (AID 1933); format: functional; conditions: Homo sapiens
BJ [5] = assay: cells; format: functional, cell-based; conditions: Homo sapiens
[6] = target: T2, G-protein coupled receptor 55 (Homo sapiens, UniProt Q9Y2T6); assay: GPR55 antagonists blocking LPI-driven arrestin recruitment, primary screen, imaging, U2OS, beta-arrestin-GFP, LPI agonist (AID 2013); format: functional;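 further: antagonist potency measured as reduced agonist-driven arrestin aggregation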
BJ [7] = assay: cytotoxicity toward BJ-TERT-LT-ST fibroblasts, dose response, cell-based, RAS-independent, luminescence (AID 1935); format: functional; conditions: Homo sapiens;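 further: BJ fibroblasts immortalized with TERT plus LT and ST oncogenes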
[8] = cytotoxicity toward DRD oncogenic fibroblasts, dose response, cell-based, non-viral oncogenic, luminescence (AID 1934); format: functional; conditions: Homo sapiens
[9] = target: T2, G-protein coupled receptor 55; assay: GPR55 agonists via beta-arrestin recruitment, primary screen, imaging, U2OS cells, beta-arrestin-GFP redistribution (AID 1961); format: functional
[10] = target: T3, Replicative DNA helicase DnaB (Mycobacterium tuberculosis, UniProt P9WMR3); assay: DnaB intein splicing inhibitors, dose response, biochemical, cell-free fluorescence (AID 449749); format: functional
T3 sequence (P9WMR3 whole entry): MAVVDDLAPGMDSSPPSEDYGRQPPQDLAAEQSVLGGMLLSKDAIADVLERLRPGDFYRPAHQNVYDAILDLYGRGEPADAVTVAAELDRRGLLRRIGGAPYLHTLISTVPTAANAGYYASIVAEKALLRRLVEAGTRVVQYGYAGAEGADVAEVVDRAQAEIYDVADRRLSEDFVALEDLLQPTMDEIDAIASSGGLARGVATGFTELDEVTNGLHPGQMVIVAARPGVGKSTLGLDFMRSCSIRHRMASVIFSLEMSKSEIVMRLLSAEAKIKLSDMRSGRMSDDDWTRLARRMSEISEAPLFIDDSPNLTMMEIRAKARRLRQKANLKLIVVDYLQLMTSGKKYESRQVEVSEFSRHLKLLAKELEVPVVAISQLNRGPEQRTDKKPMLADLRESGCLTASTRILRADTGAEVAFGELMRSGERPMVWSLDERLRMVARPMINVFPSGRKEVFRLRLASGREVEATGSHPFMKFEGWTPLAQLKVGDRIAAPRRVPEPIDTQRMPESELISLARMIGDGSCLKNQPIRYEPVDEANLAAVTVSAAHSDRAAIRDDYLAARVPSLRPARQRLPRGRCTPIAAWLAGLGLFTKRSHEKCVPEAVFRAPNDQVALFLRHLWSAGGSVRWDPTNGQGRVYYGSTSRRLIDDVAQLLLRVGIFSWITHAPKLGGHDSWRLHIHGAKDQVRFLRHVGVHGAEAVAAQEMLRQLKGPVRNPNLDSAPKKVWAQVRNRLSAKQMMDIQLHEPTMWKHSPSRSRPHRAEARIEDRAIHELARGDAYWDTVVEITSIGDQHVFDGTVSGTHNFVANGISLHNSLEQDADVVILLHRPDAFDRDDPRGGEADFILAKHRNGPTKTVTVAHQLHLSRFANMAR

Insulin-degrading enzyme [11] = target: T4, Insulin-degrading enzyme (Homo sapiens, UniProt P14735); assay: activators of recombinant IDE enzyme, dose response, counter-screen for IDE activator project, biochemical, fluorescence polarization (AID 588681)
T4 sequence (P14735 whole entry): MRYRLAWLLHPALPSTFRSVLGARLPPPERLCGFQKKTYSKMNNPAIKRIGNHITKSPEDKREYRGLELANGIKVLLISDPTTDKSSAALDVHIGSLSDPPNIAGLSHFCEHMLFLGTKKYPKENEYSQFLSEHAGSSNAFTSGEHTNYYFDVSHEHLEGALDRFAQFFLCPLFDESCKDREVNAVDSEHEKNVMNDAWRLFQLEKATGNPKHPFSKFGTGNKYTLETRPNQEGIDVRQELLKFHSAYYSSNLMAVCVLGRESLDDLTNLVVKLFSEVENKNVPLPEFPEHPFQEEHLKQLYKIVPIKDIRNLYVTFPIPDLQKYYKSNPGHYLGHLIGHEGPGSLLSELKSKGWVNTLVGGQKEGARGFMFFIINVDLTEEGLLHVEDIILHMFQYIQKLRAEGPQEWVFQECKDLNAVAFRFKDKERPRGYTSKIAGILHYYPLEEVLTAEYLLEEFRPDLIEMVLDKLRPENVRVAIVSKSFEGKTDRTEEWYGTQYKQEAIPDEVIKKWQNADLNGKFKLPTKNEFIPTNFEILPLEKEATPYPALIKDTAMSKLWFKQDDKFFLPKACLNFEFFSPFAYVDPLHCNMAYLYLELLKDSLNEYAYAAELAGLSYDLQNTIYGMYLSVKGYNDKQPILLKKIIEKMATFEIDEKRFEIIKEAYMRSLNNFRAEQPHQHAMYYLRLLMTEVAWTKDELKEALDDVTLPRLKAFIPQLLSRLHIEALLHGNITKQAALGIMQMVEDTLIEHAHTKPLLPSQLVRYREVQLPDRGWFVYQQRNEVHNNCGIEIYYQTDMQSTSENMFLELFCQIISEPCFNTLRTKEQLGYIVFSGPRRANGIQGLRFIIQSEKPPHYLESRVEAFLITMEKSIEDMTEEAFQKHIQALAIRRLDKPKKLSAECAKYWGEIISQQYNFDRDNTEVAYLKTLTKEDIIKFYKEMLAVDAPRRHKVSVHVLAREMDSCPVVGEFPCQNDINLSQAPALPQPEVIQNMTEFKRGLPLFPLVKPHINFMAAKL

BJ [12] = assay: cytotoxicity toward Ras-transformed BJeLR fibroblasts, dose response, cell-based, alamar blue fluorescence, cherrypicked samples (AID 2631); format: functional; conditions: Homo sapiens;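 further: confirmatory dose-response assay in RAS-dependent BJ fibroblasts engineered with TERT, LT and ST, with cytotoxicity read by fluorescence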
Protein RecA = target: T5, Protein RecA (Mycobacterium tuberculosis, UniProt P9WHJ3); assay: Fluorescence Cell-Free Homogeneous Dose Retest to Identify Inhibitors of RecA-Intein Splicing Activity. [Related pubchem assays (depositor defined):AID2097, AID2223, AID489010, AID492950]; format: functional
T5 sequence (P9WHJ3 whole entry): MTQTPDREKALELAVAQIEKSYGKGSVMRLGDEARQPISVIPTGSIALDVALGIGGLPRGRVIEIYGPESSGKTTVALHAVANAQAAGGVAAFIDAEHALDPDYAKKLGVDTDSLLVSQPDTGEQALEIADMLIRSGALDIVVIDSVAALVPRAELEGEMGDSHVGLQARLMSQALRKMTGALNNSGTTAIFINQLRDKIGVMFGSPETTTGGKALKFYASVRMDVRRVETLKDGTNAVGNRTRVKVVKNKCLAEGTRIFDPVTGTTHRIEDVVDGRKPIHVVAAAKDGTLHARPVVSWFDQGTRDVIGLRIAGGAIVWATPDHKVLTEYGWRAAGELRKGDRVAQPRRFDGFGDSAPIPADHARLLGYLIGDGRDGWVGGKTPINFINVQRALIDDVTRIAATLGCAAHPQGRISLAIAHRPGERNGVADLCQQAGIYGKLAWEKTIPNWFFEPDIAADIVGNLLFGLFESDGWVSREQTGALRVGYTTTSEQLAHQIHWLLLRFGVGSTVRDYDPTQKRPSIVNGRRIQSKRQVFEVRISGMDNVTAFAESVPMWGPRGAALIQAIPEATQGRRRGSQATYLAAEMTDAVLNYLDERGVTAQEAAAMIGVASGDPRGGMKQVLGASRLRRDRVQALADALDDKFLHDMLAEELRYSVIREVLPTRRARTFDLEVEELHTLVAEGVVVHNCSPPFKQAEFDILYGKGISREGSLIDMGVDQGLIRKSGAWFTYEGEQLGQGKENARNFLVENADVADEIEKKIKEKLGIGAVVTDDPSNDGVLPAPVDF

Insulin-degrading enzyme [13] = target: T4, Insulin-degrading enzyme; assay: activators of endogenous IDE in HEK cells, dose response, cell-based, fluorescence polarization (AID 588439); format: functional
Vero = assay: cells; format: functional; conditions: Chlorocebus sabaeus
HEK293 [14] = assay: HEK cell cytotoxicity by LDH release, dose response, cytotoxicity control for IDE activator project, fluorescence, HEK cells (AID 588440); format: functional, cell-based; conditions: Homo sapiens;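 further: cytotoxicity by LDH release measuring loss of membrane integrity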
HEK293 [15] = assay: optical interference in Abeta FP readout, dose response, artefact control for IDE activator project, biochemical, fluorescence polarization (AID 588442); format: functional, cell-based; conditions: Homo sapiens
HEK293 [16] = assay: cells; conditions: Homo sapiens
HEK293 [17] = assay: cells; conditions: Homo sapiens; remark: listed apart in the source
Escherichia coli = assay: microbe, parasite or virus in culture
A-375 [18] = assay: MITF: Counter assay: A375 proliferation Measured in Cell-Based System Using Plate Reader - 2084-03_Inhibitor_Dose_DryPowder_Activity. [Related pubchem assays (depositor defined):AID488944]; format: functional; conditions: Homo sapiens
A-375 [19] = assay: A375 melanoma cell viability reduction, dose response, counter-screen for MITF modulator project, cherry-pick samples, set 2 (AID 540335); format: functional, cell-based; conditions: Homo sapiens

T2 sequence (Q9Y2T6 whole entry): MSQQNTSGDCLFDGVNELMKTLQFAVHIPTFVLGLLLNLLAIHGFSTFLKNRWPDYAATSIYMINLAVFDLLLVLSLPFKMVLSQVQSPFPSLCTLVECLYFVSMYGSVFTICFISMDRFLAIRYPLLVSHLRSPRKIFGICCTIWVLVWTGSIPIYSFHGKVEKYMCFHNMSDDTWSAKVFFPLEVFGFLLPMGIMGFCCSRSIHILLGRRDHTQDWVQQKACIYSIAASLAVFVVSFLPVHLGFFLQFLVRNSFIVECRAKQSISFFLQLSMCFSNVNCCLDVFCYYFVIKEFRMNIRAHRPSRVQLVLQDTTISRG
Chain of Mu-type opioid receptor (P35372 whole entry): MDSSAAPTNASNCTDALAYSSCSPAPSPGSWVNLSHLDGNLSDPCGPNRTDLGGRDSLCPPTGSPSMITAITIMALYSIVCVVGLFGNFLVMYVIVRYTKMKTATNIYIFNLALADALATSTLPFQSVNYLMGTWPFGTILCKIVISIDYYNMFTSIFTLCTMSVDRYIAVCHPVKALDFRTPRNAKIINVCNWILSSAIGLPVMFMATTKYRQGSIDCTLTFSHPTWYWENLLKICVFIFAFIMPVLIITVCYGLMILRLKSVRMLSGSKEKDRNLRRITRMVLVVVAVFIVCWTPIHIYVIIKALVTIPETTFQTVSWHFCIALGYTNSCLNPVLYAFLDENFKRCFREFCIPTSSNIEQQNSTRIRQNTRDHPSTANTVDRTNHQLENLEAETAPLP
Chain of 5-hydroxytryptamine receptor 5A (P47898 whole entry): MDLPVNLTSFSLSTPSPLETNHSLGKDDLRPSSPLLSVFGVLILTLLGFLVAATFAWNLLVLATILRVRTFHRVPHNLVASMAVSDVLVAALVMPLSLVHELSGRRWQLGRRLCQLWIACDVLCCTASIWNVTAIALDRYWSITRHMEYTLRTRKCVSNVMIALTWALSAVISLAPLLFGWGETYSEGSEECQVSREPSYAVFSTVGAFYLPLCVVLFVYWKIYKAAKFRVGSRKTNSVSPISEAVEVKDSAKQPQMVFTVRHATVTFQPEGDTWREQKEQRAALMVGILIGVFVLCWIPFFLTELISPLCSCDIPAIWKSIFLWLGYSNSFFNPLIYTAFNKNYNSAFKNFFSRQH
Chain of Delta-type opioid receptor (P41143 whole entry): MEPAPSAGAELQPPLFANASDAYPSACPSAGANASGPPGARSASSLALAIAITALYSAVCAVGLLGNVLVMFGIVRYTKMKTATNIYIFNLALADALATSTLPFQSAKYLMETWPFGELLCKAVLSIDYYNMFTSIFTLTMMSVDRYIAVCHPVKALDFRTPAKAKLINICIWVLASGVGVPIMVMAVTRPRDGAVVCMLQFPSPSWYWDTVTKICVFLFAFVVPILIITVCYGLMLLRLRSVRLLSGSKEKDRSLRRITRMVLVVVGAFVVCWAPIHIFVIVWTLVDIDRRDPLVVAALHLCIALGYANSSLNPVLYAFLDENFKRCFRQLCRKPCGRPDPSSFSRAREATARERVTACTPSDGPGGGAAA

COC(=O)NCC(c1ccc2c(c1)OCO2)N1CCN(c2ccccc2)CC1 (stereo not drawn)
inactive: EC50 [2] > 92.4 µM | EC50 (Mu-type opioid receptor) 17.3 µM | EC50 [3] > 92.4 µM
active: EC50 [1] 0.105 µM

CCOC(=O)c1c(CSC(=N)N)n(-c2ccc(C)cc2)c2cc(Br)c(OC(C)=O)cc12
inconclusive: EC50 (BJ [5]) 12 µM
inactive: EC50 [9] > 32 µM | EC50 (Insulin-degrading enzyme [11]) > 54.7 µM | EC50 (BJ [12]) > 133 µM | EC50 (Insulin-degrading enzyme [13]) > 54.7 µM | EC50 (HEK293 [15]) > 54.7 µM | EC50 (HEK293 [16]) > 59.7 µM | EC50 (HEK293 [17]) > 59.7 µM
active: EC50 (BJ [4]) 5.98 µM | IC50 [6] 5.03 µM | EC50 (BJ [7]) 5.6 µM | EC50 [8] 9.02 µM | AC50 [10] 4.79 µM | EC50 (Protein RecA) 4.25 µM | CC50 (Vero) > 25 µM | IC50 (HEK293 [14]) 9.83 µM

c1ccc2c(OCCCN3CCCCCC3)cccc2c1
active: AC50 (Escherichia coli) 19.6 µM

CCOc1ccc(/N=C(\C)C2=C(O)c3ccccc3C2=O)cc1
active: AC50 (A-375 [18]) > 35 µM | AC50 (A-375 [19]) > 35 µM
